Among the data in patent publication US4870210A, “Aminoguanidine derivative as anti-inflammatory agents” (American Home Products Corporation, priority 1987, dated 1989) are ED50 and IC50 values, retold here.

The nature of assay [1]: rat carrageenan paw edema assay. The class given is in vivo, rat (male Sprague-Dawley). Conditions: po, 3 h, read-out: Oral ED50 (95% C.L.). The protocol: The compounds of the invention are further tested in the rat carrageenan paw edema assay to determine their ability to inhibit the acute inflammatory response. This assay is carried out as follows: 140-180 gm male Sprague-Dawley rats, in groups of 6 animals are injected subcutaneously in the right paw with 0.1 ml of 1% carrageenan at zero time. Mercury plethysmographic readings (ml) of the paw are made at zero time and 3 hours later. Test compounds are suspended or dissolved in 0.5% methylcellulose and given perorally 1 hour prior to carrageenan administration. The increase in paw volume (edema in ml.) produced by the carrageenan is measured. […] Unpaired Student's t-test is used to determine statistical significance.
On the technique in general: The carrageenan paw model is a standard test of acute inflammation.

Assay [2] deals with synthesis of PGE2 by murine peritoneal macrophages. Nature of the assay: inhibition of the synthesis of PGE2 by murine peritoneal macrophages. The note with it: Mus musculus, Peritoneal macrophage, zymosan or TPA stimulus, RIA. The class given is cell-based, mouse (CD-1). The method, then:
(§1) The ability of the compounds of the invention to inhibit both leukotriene and prostaglandin synthesis is examined in an assay which measures the ability of the compounds of the invention to inhibit the synthesis of PGE2 and LTC4 by murine peritoneal macrophages.
(§2) The assay is carried out as follows:
(§3) Macrophages are removed from the peritoneal cavity of 55-57 day old CD-1 mice (killed by CO2 asphyxiation) by peritoneal lavage and centrifuged at 400×g for ten minutes. The cells are resuspended in Medium 199 and 4×10^6 cells are allowed to adhere on 35×10 mm Petri dishes for 1.5 hours at 37° C. in an atmosphere of 95% air and 5% CO2. The cell monolayers are washed and incubated overnight in Medium 199 supplemented with 10% heat inactivated bovine serum containing 1 μCi[^14 C]-arachidonic acid, or in the absence of ^14 C-arachidonic acid when the supernatant is to be assayed by radioimmunoassay (RIA). The labeled cells are then washed and incubated at 37° C. for 2 hours in Medium 199 with the prostaglandin stimuli, zymosan, or 12-o-tetradecanoyl-phorbol-13-acetate (TPA) and in the presence or absence of test compounds. Following incubation, the supernatant is removed and subjected to radioimmunoassay in order to determine the percent inhibition of prostaglandin E2 and leukotriene C4 by the test compounds.

The subject of assay [3] is synthesis of the arachidonic acid cyclooxygenase oxidation product TxB2. Nature of the assay: inhibition of the synthesis of the cyclooxygenase oxidation product TxB2 by rat polymorphonuclear leukocytes. The class given is cell-based, rat (female Wistar). The note with it: Leukocyte; rat PMN, A23187 stimulated. The protocol:
(§4) Rat polymorphonuclear leukocytes (PMNs) are obtained from female Wistar rats (150-200 g) which receive an injection of 6% glycogen (10 ml i.p.). Rats are sacrificed 18-24 hours post injection by CO2 asphyxiation and the elicited cells are harvested by peritoneal lavage using physiological saline (0.9% NaCl). The exudate is centrifuged at 400×g for 10 minutes. The supernatant fluid is discarded and the cell pellet is resuspended in a concentration of 2.0×10^7 cells/ml in HBSS containing Ca^++ and Mg^++ and 10 μM L-cyteine.
To 1 ml aliquots of cell suspension, test drugs or vehicle are added, then preincubated at 37° C. for 10 minutes. A23187 (1 μM) and [^3 H]-AA (3.0 μCi/ml) are then added and the samples are further incubated for 10 minutes. The reaction is terminated by centrifugation and pelleting cells. Supernatants are then analyzed by HPLC analysis on a 15 cm×4.6 mm ID Supelcosil LC-18 (Supelco)(3M) column, using a two solvent system at a flow rate of 1.4 ml total flow as follows:
Co-chromatography with standard [^3 H] leukotriene B4 (LTB4) in medium of stimulated PMN exposed to drug is compared to that found in medium of stimulated cells exposed to no drug, generating percent inhibition.
In this assay, the procedure of Example 3 is carried out as described. […]
The results are calculated as in Example 3 and presented below: […]

Assay [4] relates to synthesis of LTB4 by rat glycogenelicited polymorphonuclear leukocytes (PMN). Nature of the assay: inhibition of the synthesis of LTB4 (lipoxygenase oxidation product) by rat glycogen-elicited polymorphonuclear leukocytes (PMN). The class given is cell-based, rat (female Wistar). Conditions: Leukocyte, A23187 stimulated. The method, then: This is especially true with respect to 5,12-diHETE, which also denoted as LTB4 [see Ford-Hitchinson, J. Roy. Soc. Med., 74, 831 (1981)]. The assay of this Example measures the ability of the compounds of the invention to inhibit the synthesis of LTB4 by rat glycogenelicited polymorphonuclear leukocytes (PMN).
as §2, §4
To 1 ml aliquots of cell suspension, test drugs or vehicle are added, then preincubated at 37° C. for 10 minutes. […] Supernatants are then analyzed by HPLC analysis on a 15 cm×4.6 mm ID Supelcosil LC-18 (Supelco)(3M) column, using a two solvent system at a flow rate of 1.4 ml total flow as follows: […]
Injections: 150 μl of each supernatant is injected directly onto column and ^3 H arachidonic acid metabolites are monitored using an on-line radioactivity detector (Ramona, IN/US, Fairfield, NJ). […]

The test system of assay [5] is synthesis of LTC4 by murine peritoneal macrophages. Put plainly: inhibition of the synthesis of LTC4 by murine peritoneal macrophages. The class given is cell-based, mouse (CD-1). Conditions: Mus musculus, Peritoneal macrophage, zymosan or TPA stimulus, RIA. The method, then: as §1, §2, §3

As to `CC(=O)Oc1ccccc1C(=O)O` [Aspirin], the ED50 in assay [1] was 145 mg/kg.
Same read-out and setting: to `COc1ccc2c(c1)c(CC(=O)O)c(C)n2C(=O)c1ccc(Cl)cc1` [Indomethacin] belongs 3.7 mg/kg.
For `CC(=NNC(=N)N)c1cccc(OCc2ccc3ccccc3c2)c1` [Example 1, 2-[1-[3-(2-Naphthalenylmethoxy)phenyl]ethylidene]-hydrazinecarboximidamide], the IC50 in assay [2] stood at 43 µM; in assay [3], 11.2 µM; in assay [4], 8.9 µM; in assay [5], 33 µM.

Usually ED50 stands for the dose that gives a 50% effect, or the effect in half of the subjects. One may read the IC50 as the concentration at which inhibition is half-maximal.
